Measurements published in patent US10105384B2, “Nucleic acids targeting TCTP for use in the treatment of chemo- or hormone-resistant cancers” (INSTITUT NATIONAL DE LA SANTE ET DE LA RECHERCHE MEDICALE …, priority 2010, dated 2018).
d = 2'-deoxy (DNA); r = 2'-OH (RNA)

Columns and labels:
Assay type in all cases: cell-based, human
[1] = test system: PC-3 cells; assay: MTT cell growth assay, PC-3 cells; conditions: for enhancement of docetaxel sensitivity: PC-3 cells, 50 nM docetaxel 24 h, MTT
Protocol: In brief, cells were seeded in each well of 12-well microtiter plates (30 000 to 50 000 cells per well) and allowed to attach overnight. To study the effect of TCTP downregulation on apoptosis induced by docetaxel, PC-3 cells were transiently transfected the day after seeding with 5 nM of TCTP siRNA for 48 h or 100 nM of TCTP ASO for 72 h. Cells were then treated with 50 nM of docetaxel and MTT assays were performed after 24 h. To assess the effect of TCTP downregulation on Hsp27 cytoprotection, LNCaP-Mock and -Hsp27 cells were transiently transfected the day after seeding with 5 nM of TCTP siRNA for 48 h. The down- or upregulation of TCTP effect on LNCaP and C4-2 cell viability was realized after transient transfections with 100 nM of TCTP ASO or 0.02 μg/μl of pDEST-TCTP for 72 h and 48 h respectively. Cells were then treated with 1 nM of docetaxel in serum-free media (mimics androgen withdrawal in vitro) and crystal violet assays were performed the day after. Each assay was performed in triplicate.
To assess the effect of TCTP down-regulation on CR cell growth, PC-3 cells were treated for 1 day with 5 nM TCTP siRNA or for 2 days with 100 nM TCTP ASO. At the end of the treatment, PC-3 cells were incubated with 50 nM of docetaxel. Growth rates of PC-3 cells were examined using the 3-(4,5-dimethylthiazol-2-yl)-2,5-diphenyltetrazolium bromide assay. […] The effect of the inhibition of TCTP on cell survival was analyzed in PC-3 after combined ASO and docetaxel-chemotherapy treatment. After 24 h of treatment with 50 nM of docetaxel, cell viability was determined using a MTT assay. The experiment was repeated in triplicate. *** differs from PC-3 transfected with control-siRNA (P50.001) using Statview software. […] The same effect has been observed with TCTP siRNA (SEQ ID NO: 3) and 5′-[…]-3′ (SEQ ID NO: 14) and 5′-[…]-3′ (SEQ ID NO: 15) ASOs.
(§1) PC3 cells were transfected with a TCTP siRNA of SEQ ID NO: 3. Cell proliferation and apoptosis were studied using respectively MTT (3-(4,5-dimethylthiazol-2-yl)-2,5-diphenyl tetrazolium bromure) assay and flow cytometry.
(§2) PC3 cells were transfected with a TCTP ASO of SEQ ID NO: 2. Cell proliferation and apoptosis were studied using respectively MTT assay and flow cytometry.

[2] = test system: caspase-3; assay: Caspase-3 cleavage by western blot in PC-3 cells; conditions: not in control treated cells
Protocol: Western Blot analysis was performed as described previously (Rocchi et al., 2004, Cancer Res. 64:6595-602) with 1:5000 rabbit anti-Hsp27 polyclonal antibody (Assay Designs, Villeurbanne, France), 1:2000 rabbit TCTP polyclonal antibody (Abcam Inc., Cambridge, UK), 1:250 rabbit anti-MSL1v1 polyclonal antibody (Abcam Inc.), 1:500 mouse anti-ubiquitin monoclonal antibody (Santa Cruz Biotechnology Inc., Heidelberg, Germany) or 1:1000 rabbit anti-caspase-3 polyclonal antibody (Cell Signalling Technology Inc., Danvers, USA). Loading levels were normalized using 1:5000 rabbit anti-glyceraldehyde-3-phosphate dehydrogenase polyclonal (Abcam Inc.) or 1:2500 mouse anti-vinculine monoclonal antibodies (Sigma Chemical Co., St Louis, Mo., USA).
Flow cytometry was used to quantify the percentage of cells in each cell cycle phase three days after the siRNA treatment. After the treatment of PC-3 cells with 5 nM TCTP siRNA for 1 day, the fraction of cells undergoing apoptosis (sub-G1/G0 fraction) was 25% higher after treatment with 5 nM TCTP siRNA compared with scrambled control siRNA (**, P≤0.01; FIG. 6, upper panel). Using TCTP ASO treatment alone, we found an increase of 75% in sub-G0G1 fraction (***, P≤0.001; FIG. 6, middle and bottom panel), enhanced by the 50 nM docetaxel treatment (90% in sub-G0-G1 fraction, ***, P≤0.001). […]

[3] = test system: PC-3 cells; assay: Flow cytometry of propidium iodide-stained nuclei (apoptosis, cell cycle), PC-3 cells
Protocol: Flow cytometry of propidium iodide-stained nuclei was performed as described previously (Rocchi et al., 2004, Cancer Res. 64:6595-602). In brief, PC-3 cells were plated at the density of 10^6 cells into 10 cm dishes in DMEM supplemented with 10% FCS. To assess the effect of TCTP inhibition on apoptosis and cell cycle, cells were treated the day after seeding with 5 nM of siRNA TCTP or control and 100 nM of ASO TCTP or scrambled control for 48 h. Cells were then treated with 50 nM of docetaxel. After 24 h, the cells were analyzed for relative DNA content on a dual laser flow cytometer (FACSCalibur, Becton Dickinson Biosciences, Le Pont de Claix, France). Each assay was performed in triplicate.
(§3) Flow cytometry was used to quantify the percentage of cells in each cell cycle phase three days after the siRNA treatment. After the treatment of PC-3 cells with 5 nM TCTP siRNA for 1 day, the fraction of cells undergoing apoptosis (sub-G1/G0 fraction) was 25% higher after treatment with 5 nM TCTP siRNA compared with scrambled control siRNA (**, P≤0.01; FIG. 6, upper panel). Using TCTP ASO treatment alone, we found an increase of 75% in sub-G0G1 fraction (***, P≤0.001; FIG. 6, middle and bottom panel), enhanced by the 50 nM docetaxel treatment (90% in sub-G0-G1 fraction, ***, P≤0.001). […] The fraction of PC-3 in S phase was 20 to 40% lower after TCTP siRNA or ASO treatments respectively compared to the scrambled controls (FIG. 6). […] The rate of apoptotic PC-3 cells after TCTP silencing with different ASO concentrations was explored with the Invitrogen countess (FIG. 6 and FIG. 7A). PC-3 cells were treated with 70, 100 or 200 nM of TCTP ASO or control. Cells were harvested 3 days after treatment and […] of trypan blue was added before analysis with Invitrogen Countess. […] Moreover, TCTP has been reported to interact with caspase-3, thereby inhibiting caspase-3 activation (Gnanasekar et al., 2009, Int J Oncol. 34:1241-6). In order to investigate the effect of TCTP silencing on caspase-3 cleavage and activity, PC-3 cells were treated daily with 100 nM TCTP or scrambled ASO for 2 days. Cells were harvested 2 days after and proteins were extracted for western blotting with a caspase-3 antibody that recognizes both full-length and cleaved caspase-3.
as §1, §2

[4] = test system: PC-3 cells; assay: Viability assay by Invitrogen Countess (trypan blue), PC-3 cells
Protocol: PC-3 cells were treated with 70, 100 or 200 nM of TCTP ASO or control. 3 days after, the cells were harvested, combined with 10 μl of trypan blue and counted with Invitrogen Countess. Viability, cell concentration and size were recorded for each sample following the manufacturer's instructions.
as §3

[5] = test system: TCTP; assay: TCTP mRNA and protein expression tests in LNCaP and PC3 cells
Protocol: TCTP mRNA and protein expression tests were carried out in LNCaP and PC3 cells exposed to a TCTP ASO of SEQ ID NO: 2 or a TCTP siRNA of SEQ ID NO: 3.

Substance | reduction in PC-3 cell growth ([1]; 5 nM siRNA alone, 4 days after treatment, compared to scrambled control) [%] | enhancement of docetaxel sensitivity [1] | decrease of proliferation of PC3 cells ([1]; TCTP siRNA, MTT assay (summary, FIG. 12)) [%] | active cleaved caspase-3 fragments (17-20 kDa) [2] | fraction of cells undergoing apoptosis (sub-G1/G0 fraction) higher than scrambled control siRNA ([3]; PC-3, 5 nM siRNA for 1 day) [%] | increase of the percentage of apoptotic cells ([3]; TCTP siRNA, PC3, flow cytometry (summary, FIG. 12)) [%] | fraction of PC-3 in S phase lower than scrambled control ([3]; siRNA treatment) [%] | rate of apoptotic cells ([4]; PC-3, TCTP siRNA) | expression of TCTP (mRNA and protein) [5] | decrease of proliferation of PC3 cells ([1]; TCTP ASO, MTT assay (summary, FIG. 13)) [%] | fraction of PC-3 in S phase lower than scrambled control ([3]; ASO treatment) [%] | increase in sub-G0-G1 fraction ([3]; PC-3, TCTP ASO plus 50 nM docetaxel) [%] | increase in sub-G0G1 fraction ([3]; PC-3, TCTP ASO treatment alone) [%] | increase of the percentage of apoptotic cells ([3]; TCTP ASO, PC3, flow cytometry (summary, FIG. 13)) [%] | rate of apoptotic cells ([4]; PC-3, 70 nM ASO, three days after transfection) [%] | rate of apoptotic cells ([4]; PC-3, 100 nM ASO, three days after transfection) [%] | rate of apoptotic cells ([4]; PC-3, 200 nM ASO, three days after transfection) [%]
5′-AACCCGUCCGCGAUCUCCCdGdG-3′ (AACCCGUCCGCGAUCUCCCGG; siRNA; sugars from the 5' end r19 d2, backbone not given here) [TCTP siRNA, from Qiagen] | 55 | same effect | 48.1 | presence of active cleaved caspase-3 fragments | 25 | 25.8 | 20 | Same effects | decreases in a significant manner |  |  |  |  |  |  |  | 
5′-ACCAATGAGCGAGTCATCAA-3′ (phosphorothioate backbone, further chemistry not given here) [ASO10] |  | up to 25% |  | presence of active cleaved caspase-3 fragments |  |  |  |  | decreases in a significant manner | 58 | 40 | 90 | 75 | 70 | 100 | 200 | 300
